Results taken from the supplement of paper PMC13207355.

Assays:
Details in all cases: exposure time: 72 h
E28 [1] = patient-derived glioblastoma stem cells of classical subtype; assay: surviving fraction (nuclei count normalised to DMSO); higher = more cells surviving (less toxic)
E21 [2] = patient-derived glioblastoma stem cells of mesenchymal subtype; assay: as above
E57 [3] = patient-derived glioblastoma stem cells of mesenchymal subtype; assay: as above
E13 [4] = patient-derived glioblastoma stem cells of classical subtype; assay: as above
E34 [5] = patient-derived glioblastoma stem cells of proneural subtype; assay: as above
FT3469 [6] = normal neural stem cell line; assay: as above
E31 [7] = patient-derived glioblastoma stem cells of proneural subtype; assay: as above
E28 [8] = assay: phenotypic distance (Euclidean, principal components) from DMSO controls (arbitrary units); higher = stronger morphological change
E21 [9] = assay: as above
E57 [10] = assay: as above
E13 [11] = assay: as above
E34 [12] = assay: as above
FT3469 [13] = assay: as above
E31 [14] = assay: as above
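Throughout, for phenotypic distance (Euclidean, principal components) from DMSO controls: cell Painting imaging in 384-well plates, CellProfiler features reduced to at least 20 principal components, Euclidean distance versus same-plate DMSO vehicle wells (0.1% v/v), median over six images per well.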
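Throughout, for surviving fraction (nuclei count normalised to DMSO): nuclei counted by high-content imaging of Hoechst-stained cells in laminin-coated 384-well plates, relative to 0.1% DMSO vehicle wells, with staurosporine as cell-death control.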

CCC(C)n1ncn(-c2ccc(N3CCN(c4ccc(OCC5COC(Cn6cncn6)(c6ccc(Cl)cc6Cl)O5)cc4)CC3)cc2)c1=O (stereo not drawn) [Itraconazole]
Details	phenotypic distance	surviving fraction
E13 [4], 4.1 nM	–	0.869
E13 [4], 12.3 nM	–	1.07
E13 [4], 37 nM	–	0.889
E13 [4], 111.1 nM	–	1.02
E13 [4], 333.3 nM	–	0.966
E13 [4], 1000 nM	–	0.801
E13 [4], 3000 nM	–	0.653
E13 [11], 4.1 nM	0.693	–
E13 [11], 12.3 nM	0.503	–
E13 [11], 37 nM	1.03	–
E13 [11], 111.1 nM	0.709	–
E13 [11], 333.3 nM	0.981	–
E13 [11], 1000 nM	2.73	–
E13 [11], 3000 nM	4.62	–
E21 [2], 4.1 nM	–	1.03
E21 [2], 12.3 nM	–	1.02
E21 [2], 37 nM	–	1.01
E21 [2], 111.1 nM	–	0.979
E21 [2], 333.3 nM	–	1.05
E21 [2], 1000 nM	–	0.79
E21 [2], 3000 nM	–	0.532
E21 [9], 4.1 nM	0.987	–
E21 [9], 12.3 nM	0.508	–
E21 [9], 37 nM	0.932	–
E21 [9], 111.1 nM	0.917	–
E21 [9], 333.3 nM	0.975	–
E21 [9], 1000 nM	3.76	–
E21 [9], 3000 nM	7.08	–
E28 [1], 4.1 nM	–	1.1
E28 [1], 12.3 nM	–	1.07
E28 [1], 37 nM	–	1.18
E28 [1], 111.1 nM	–	0.888
E28 [1], 333.3 nM	–	1.07
E28 [1], 1000 nM	–	0.897
E28 [1], 3000 nM	–	0.735
E28 [8], 4.1 nM	0.725	–
E28 [8], 12.3 nM	0.689	–
E28 [8], 37 nM	0.685	–
E28 [8], 111.1 nM	0.54	–
E28 [8], 333.3 nM	0.778	–
E28 [8], 1000 nM	1.01	–
E28 [8], 3000 nM	1.89	–
E31 [7], 4.1 nM	–	1.13
E31 [7], 12.3 nM	–	1.12
E31 [7], 37 nM	–	1.1
E31 [7], 111.1 nM	–	1.03
E31 [7], 333.3 nM	–	1.08
E31 [7], 1000 nM	–	1.09
E31 [7], 3000 nM	–	0.996
E31 [14], 4.1 nM	0.564	–
E31 [14], 12.3 nM	0.769	–
E31 [14], 37 nM	0.273	–
E31 [14], 111.1 nM	0.748	–
E31 [14], 333.3 nM	0.758	–
E31 [14], 1000 nM	1.32	–
E31 [14], 3000 nM	5	–
E34 [5], 4.1 nM	–	0.814
E34 [5], 12.3 nM	–	0.933
E34 [5], 37 nM	–	0.922
E34 [5], 111.1 nM	–	1.02
E34 [5], 333.3 nM	–	1.04
E34 [5], 1000 nM	–	0.831
E34 [5], 3000 nM	–	0.701
E34 [12], 4.1 nM	0.775	–
E34 [12], 12.3 nM	0.644	–
E34 [12], 37 nM	0.488	–
E34 [12], 111.1 nM	0.692	–
E34 [12], 333.3 nM	0.901	–
E34 [12], 1000 nM	1.17	–
E34 [12], 3000 nM	4	–
E57 [3], 4.1 nM	–	1.05
E57 [3], 12.3 nM	–	1.03
E57 [3], 37 nM	–	1.02
E57 [3], 111.1 nM	–	1.08
E57 [3], 333.3 nM	–	1.07
E57 [3], 1000 nM	–	0.999
E57 [3], 3000 nM	–	0.558
E57 [10], 4.1 nM	0.542	–
E57 [10], 12.3 nM	0.297	–
E57 [10], 37 nM	0.803	–
E57 [10], 111.1 nM	0.874	–
E57 [10], 333.3 nM	0.482	–
E57 [10], 1000 nM	2.51	–
E57 [10], 3000 nM	6.42	–
FT3469 [6], 4.1 nM	–	0.763
FT3469 [6], 12.3 nM	–	1.05
FT3469 [6], 37 nM	–	1.03
FT3469 [6], 111.1 nM	–	1.06
FT3469 [6], 333.3 nM	–	0.993
FT3469 [6], 1000 nM	–	0.895
FT3469 [6], 3000 nM	–	0.53
FT3469 [13], 4.1 nM	0.966	–
FT3469 [13], 12.3 nM	0.554	–
FT3469 [13], 37 nM	1.33	–
FT3469 [13], 111.1 nM	3.66	–
FT3469 [13], 333.3 nM	0.753	–
FT3469 [13], 1000 nM	1.14	–
FT3469 [13], 3000 nM	3.43	–
